Reference: ChEMBL document CHEMBL1127253, “Synthesis and in vitro gastrointestinal motility enhancing activity of 3-aryl-2-imidazolidinylidene propanedinitrile derivatives” (Bioorg Med Chem Lett, 1994)

Columns and labels:
Acetylcholinesterase = target: T1, Acetylcholinesterase (Rattus norvegicus, UniProt P37136); experiment: Inhibitory activity against acetylcholinesterase (AChE) from rat brain was determined
T1 sequence (P37136 whole entry): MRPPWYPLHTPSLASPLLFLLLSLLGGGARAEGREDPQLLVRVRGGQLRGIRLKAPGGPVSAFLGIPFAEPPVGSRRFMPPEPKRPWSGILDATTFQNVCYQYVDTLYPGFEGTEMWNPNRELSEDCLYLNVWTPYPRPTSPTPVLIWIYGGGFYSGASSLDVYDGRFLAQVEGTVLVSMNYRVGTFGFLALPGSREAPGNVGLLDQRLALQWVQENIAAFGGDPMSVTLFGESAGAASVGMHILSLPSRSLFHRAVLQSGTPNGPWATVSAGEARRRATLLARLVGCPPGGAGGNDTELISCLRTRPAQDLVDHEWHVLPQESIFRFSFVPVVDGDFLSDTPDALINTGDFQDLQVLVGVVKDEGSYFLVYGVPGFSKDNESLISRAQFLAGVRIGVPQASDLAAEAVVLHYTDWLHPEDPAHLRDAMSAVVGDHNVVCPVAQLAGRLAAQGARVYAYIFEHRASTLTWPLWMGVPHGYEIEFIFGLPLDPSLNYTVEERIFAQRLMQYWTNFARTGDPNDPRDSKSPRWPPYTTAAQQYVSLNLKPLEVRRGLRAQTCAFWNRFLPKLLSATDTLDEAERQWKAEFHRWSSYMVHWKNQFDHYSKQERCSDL

Cavia porcellus = species: Cavia porcellus; experiment: In vitro gastrointestinal motility enhancing activity expressed as concentration of compound producing 30% potentiation of contractions induced by electrical stimulation in guinea pig; assay type: functional

SMILES	IC50 (Acetylcholinesterase)	EC30 (Cavia porcellus)
Cc1cccc(N2CCN(CCNCc3ccc(CN4CCCCC4)o3)C2=C(C#N)C#N)c1	13 nM	19 nM
COc1ccc(N2CCN(CCNCc3ccc(CN4CCCCC4)o3)C2=C(C#N)C#N)cc1	19 nM	12 nM
COc1ccccc1N1CCN(CCNCc2ccc(CN3CCCCC3)o2)C1=C(C#N)C#N	66 nM	490 nM
Cc1ccc(N2CCN(CCNCc3ccc(CN4CCCCC4)o3)C2=C(C#N)C#N)cc1	2.2 nM	52 nM
N#CC(C#N)=C1N(CCNCc2ccc(CN3CCCCC3)o2)CCN1c1ccccc1	14 nM	10 nM
COc1cccc(N2CCN(CCNCc3ccc(CN4CCCCC4)o3)C2=C(C#N)C#N)c1	14 nM	14 nM
N#CC(C#N)=C1NCCN1CCNCc1ccc(CN2CCCCC2)o1	30 nM	16 nM
